Each structure is given as a SMILES string.

For orientation: IC50 means the concentration at which inhibition is half-maximal.

Chain of Intermediate conductance calcium-activated potassium channel protein 4 (O15554 whole entry): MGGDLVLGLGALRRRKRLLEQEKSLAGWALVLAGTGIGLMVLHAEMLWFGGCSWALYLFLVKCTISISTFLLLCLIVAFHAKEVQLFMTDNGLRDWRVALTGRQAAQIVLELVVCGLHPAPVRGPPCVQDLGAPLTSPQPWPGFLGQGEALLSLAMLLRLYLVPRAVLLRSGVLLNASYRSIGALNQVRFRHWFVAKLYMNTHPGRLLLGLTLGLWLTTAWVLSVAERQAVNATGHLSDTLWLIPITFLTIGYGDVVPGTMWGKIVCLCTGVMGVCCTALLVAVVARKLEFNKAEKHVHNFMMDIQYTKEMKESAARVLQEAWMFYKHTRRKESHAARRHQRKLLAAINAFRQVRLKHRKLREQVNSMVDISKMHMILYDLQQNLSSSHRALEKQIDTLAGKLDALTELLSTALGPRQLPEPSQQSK

The experiment has as its target Intermediate conductance calcium-activated potassium channel protein 4 (Homo sapiens, UniProt O15554). The experiment in a line: Inhibition of Kca3.1 in human erythrocytes. It is filed as cell-based.
With `COC(=O)N(C[C@H]1CCCN1C)C1(c2ccc(F)c(C(F)(F)F)c2)CC1`, the IC50 came to 8.1 nM. As for `COC(=O)N(CC(C)(C)N)C1(c2ccc(F)c(C(F)(F)F)c2)CC1`, the figure is 8.6 nM; as for `COC(=O)N(C[C@@H]1CCCN1)C1(c2ccc(F)c(OC(F)(F)F)c2)CC1`, 8.7 nM.

The values are drawn from ChEMBL document CHEMBL4665906, “Novel Potassium Channel Inhibitors” (ACS Med Chem Lett, 2020).
